Results as given in patent US11234420B2, “Method for constructing PD-1 gene modified humanized animal model and use thereof” (priority 2016, dated 2022).
“And” between values parts separate entries of the source, which are not always exact repeats. Equal values may be shown once. “Also recorded” adds a separate entry of the source.

How the values were obtained:
Format in all cases: in vivo
[1] = tested on: mouse colon cancer cells MC38-hPDL1; assay: Combined use of Cisplatin with Keytruda or Tecentriq (Example 11), MC38-hPDL1 tumors in B-hPD-1 mice; conditions: for Tumor volume Day 8: Day 8, group division, Cisplatin 10 mg/kg intravenous once, Keytruda 0.1 mg/kg i.p. once per 3 days x6, Tecentriq 1 mg/kg i.p. once per 2 days x8; for Tumor volume Day 18 / Tumor volume Day 25: doses as Table 9 (Cisplatin 10, Keytruda 0.1, Tecentriq 1 mg/kg); for Tumor volume Day 25: Day 25, end-point; for Tumor free situation: end-point; for weight change compared among groups: mouse, in vivo
Protocol: B-hPD-1 homozygous mice (4-6 weeks old) were taken, 5×10^5 mouse colon cancer cells MC38-hPDL1 were subcutaneously inoculated at right side (the same as Example 10). When the tumor volume was about 100 mm^3, the mice were randomly divided into 6 control groups or treatment groups (n=7/group). For the treatment group, one or two of the above 3 drugs were randomly injected, the dosages were 0.1-10 mg/kg, and a blank solvent was injected for the control group. The tumor volume was measured and the mice were weighed twice a week. Moreover, euthanasia was performed when the tumor volume of a single mouse reached 3000 mm^3.

[2] = tested on: mouse colon cancer cells MC38; assay: Keytruda antibody efficacy at different dosages (Example 10, Experiment 2), MC38 tumors in B-hPD-1 mice; conditions: for Tumor volume Day 8: once per 3 days x6, Day 8, group division; for Tumor volume Day 32: Day 32, end-point; for Survival situation / Tumor free situation: end-point
Protocol: (§1) B-hPD-1 homozygous mice (4-6 weeks old) were taken, mouse colon cancer cells MC38 or modified MC38-hPDL1 (i.e., PD-L1 gene humanized MC38 cells) were subcutaneously inoculated. When the tumor volume was about 100 mm^3, the mice were randomly divided into a control group or a treatment group. For the treatment group, one of the above 2 antibodies was randomly selected and administered at different dosages (0.3-25 mg/kg), and the same volume of a blank solvent was injected for the control group. The tumor volume was measured twice a week and the body weight were measured for each mouse. Moreover, euthanasia was performed when the tumor volume of a single mouse reached 3000 mm^3. The specific experiment scheme was as follows:
Experiment 2 Keytruda antibody efficacy experiments at different dosages: after subcutaneous inoculation of MC38 cells to mice (5×10^5/100 μL PBS), the anti-human PD-1 antibody Keytruda was administered to the treatment group (n=6/group) through intraperitoneal injection at different dosages (0.3-10 mg/kg), and the same volume of a blank solvent was injected for the control group (n=10/group); the administration frequency was one administration per 3 days for a total of 6 administrations;

[3] = tested on: mouse colon cancer cells MC38; assay: Keytruda antibody efficacy pre-experiment (Example 10, Experiment 1), MC38 tumors in B-hPD-1 mice
Protocol: as §1
Experiment 1 Keytruda antibody efficacy pre-experiment (n=6/group): after subcutaneous inoculation of MC38 cells to mice (5×10^5/100 μL PBS), the anti-human PD-1 antibody Keytruda was administered to the treatment group at 25 mg/kg through intraperitoneal injection, and the same volume of a blank solvent was injected for the control group; the administration frequency was one administration per 3 days for a total of 6 administrations;

[4] = tested on: mouse colon cancer cells MC38-hPDL1; assay: Screening anti-human PD-L1 antibodies (Example 12, Experiment 1), MC38-hPDL1 tumors in B-hPD-1 mice
Protocol: Experiment 1: B-hPD-1 homozygous mice (4-6 weeks old) were taken, 5×10^5 mouse colon cancer cells MC38-hPDL1 were subcutaneously inoculated at right side (the same as Example 10). When the tumor volume was about 100 mm^3, the mice were randomly divided into the control group or treatment groups (n=5/group). For the treatment group, the positive control Tecentriq or one of two anti-human PD-L1 antibodies was randomly selected, all dosages were 3 mg/kg, and a blank solvent was injected for the control group. The administration manner was intraperitoneal injection, once per 2 days for a total of 8 times. The tumor volume was measured twice a week. Moreover, euthanasia was performed when the tumor volume of a single mouse reached 3000 mm^3.

[5] = tested on: modified mouse colon cancer cells MC38-hPDL1; assay: Tecentriq antibody efficacy at different dosages (Example 10, Experiment 4), MC38-hPDL1 tumors in B-hPD-1 mice; conditions: for Tumor volume Day 8: once per 2 days x8, Day 8, group division; for Tumor volume Day 33: Day 33, end-point; for Survival situation / Tumor free situation: end-point
Protocol: as §1
Experiment 4 Tecentriq antibody efficacy experiments at different dosages (n=5/group): subcutaneous inoculation of MC38-PDL1 (2×10^5/100 μL PBS), the […] Tecentriq was administered to the treatment group through intraperitoneal injection at 1-10 mg/kg, and the same volume of a blank solvent was injected for the control group; the administration frequency was one administration per 2 days for a total of 8 administrations;

[6] = tested on: modified mouse colon cancer cells MC38-hPDL1; assay: Tecentriq antibody efficacy pre-experiment (Example 10, Experiment 3), MC38-hPDL1 tumors in B-hPD-1 mice
Protocol: as §1
Experiment 3 Tecentriq antibody efficacy pre-experiment (n=7/group): subcutaneous inoculation of MC38-PDL1 (5×10^5/100 μL PBS), the […] Tecentriq was administered to the treatment group at 3 mg/kg through intraperitoneal injection, and the same volume of a blank solvent was injected for the control group; the administration frequency was one administration per week for a total of 2 weeks;

N.N.[Cl][Pt][Cl] [Cisplatin]
Tumor volume Day 8 [1]: 98 ± 24 mm^3
Tumor volume Day 18 [1]: 401 ± 249 mm^3
Tumor volume Day 25 [1]: 612±510 mm^3
TGITV % ([1]; doses as Table 9): 68.2%
tumor volume compared with control or single-drug groups ([1]; doses as Table 9, in words): has certain tumor inhibitory effect
Tumor free situation ([1]; doses as Table 9): 0/5
weight change compared among groups [1]: no significant difference in average weight increase
mice died ([1]; n=7/group, by experiment end-point): 2

Keytruda: humanized monoclonal antibody from Merck & Co.; human PD-1 antibody
TGITV % ([2]; 0.3 mg/kg): 78.2%
Tumor volume Day 8 ([2]; 0.3 mg/kg i.p.): 113 ± 28 mm^3
Tumor volume Day 22 ([2]; 0.3 mg/kg): 115 ± 116 mm^3
Tumor volume Day 32 ([2]; 0.3 mg/kg): 437±515 mm^3
Survival situation ([2]; 0.3 mg/kg): 6/6
Tumor free situation ([2]; 0.3 mg/kg): 1/6
TGITV % ([2]; 1 mg/kg): 94.0%
Tumor volume Day 8 ([2]; 1 mg/kg i.p.): 112 ± 27 mm^3
Tumor volume Day 22 ([2]; 1 mg/kg): 89 ± 86 mm^3
Tumor volume Day 32 ([2]; 1 mg/kg): 201±186 mm^3
Survival situation ([2]; 1 mg/kg): 6/6
Tumor free situation ([2]; 1 mg/kg): 2/6
TGITV % ([2]; 3 mg/kg): 89.0%
Tumor volume Day 8 ([2]; 3 mg/kg i.p.): 113 ± 25 mm^3
Tumor volume Day 22 ([2]; 3 mg/kg): 88 ± 94 mm^3
Tumor volume Day 32 ([2]; 3 mg/kg): 277±397 mm^3
Survival situation ([2]; 3 mg/kg): 6/6
Tumor free situation ([2]; 3 mg/kg): 2/6
TGITV % ([2]; 10 mg/kg): 92.4%
Tumor volume Day 8 ([2]; 10 mg/kg i.p.): 110 ± 28 mm^3
Tumor volume Day 22 ([2]; 10 mg/kg): 117 ± 111 mm^3
Tumor volume Day 32 ([2]; 10 mg/kg): 223±270 mm^3
Survival situation ([2]; 10 mg/kg): 6/6
Tumor free situation ([2]; 10 mg/kg): 2/6
average tumor volume compared with control group ([2]; 0.3, 1, 3 and 10 mg/kg, in words): tumor volume obviously smaller than that of the control group; also recorded: obviously smaller than that of the G1 control group
Tumor volume Day 8 [1]: 98 ± 30 mm^3
Tumor volume Day 18 [1]: 606 ± 247 mm^3
Tumor volume Day 25 [1]: 1267±619 mm^3
TGITV % ([1]; doses as Table 9): 27.7%
Tumor free situation ([1]; doses as Table 9): 0/7
weight change compared among groups [1]: no significant difference in average weight increase
Tumor volume Day 6 ([3]; 25 mg/kg intraperitoneal, once per 3 days, 6 administrations, Day 6, group division): 169 ± 24 mm3
Tumor volume Day 18 ([3]; 25 mg/kg intraperitoneal, once per 3 days, 6 administrations, Day 18): 302 ± 86 mm3
Tumor volume Day 26 ([3]; 25 mg/kg intraperitoneal, once per 3 days, 6 administrations, Day 26, end-point): 111±77 mm3
TGITV % ([3]; 25 mg/kg, Tumor Growth Inhibition Value): 102%
Survival situation ([3]; 25 mg/kg, end-point Day 26): 100%
Tumor free situation ([3]; 25 mg/kg, end-point Day 26, tumor-free mice/mice): 2 of the 6 and 2/6
average tumor volume compared with control group ([3]; 25 mg/kg, in words): tumor volume obviously smaller than that of the control group; also recorded: obviously smaller than that of the G1 control group
toxicity on the animals ([3]; 25 mg/kg, in words): does not have obvious toxicity on the animals

Tecentriq: fully humanized monoclonal antibody from Genentech under Roche; human PD-L1 antibody
TGITV % ([4]; 3 mg/kg): 112.2%
Tumor volume Day 10 ([4]; 3 mg/kg i.p., once per 2 days x8, Day 10, group division): 111 ± 25 mm^3
tumor volume / therapeutic effect compared with control and Tecentriq ([4]; 3 mg/kg, same dosage and frequency, in words): significant difference in the volume of tumors between G2 or G3 and the control group (G1)
Tumor volume Day 20 ([4]; 3 mg/kg, Day 20): 60 ± 70 mm^3
Tumor volume Day 27 ([4]; 3 mg/kg, Day 27, end-point): 75±113 mm^3
Survival situation ([4]; 3 mg/kg, end-point): 5/5
Tumor free situation ([4]; 3 mg/kg, end-point): 0/5
animal weight / tolerance compared with control group ([4]; 3 mg/kg, in words): no significant difference in average weight increase
TGITV % ([5]; 1 mg/kg): 61.2%
Tumor volume Day 8 ([5]; 1 mg/kg i.p.): 144 ± 31 mm^3
Tumor volume Day 22 ([5]; 1 mg/kg): 506 ± 289 mm^3
Tumor volume Day 33 ([5]; 1 mg/kg): 1044±432 mm^3
Survival situation ([5]; 1 mg/kg): 5/5
Tumor free situation ([5]; 1 mg/kg): 0/5
TGITV % ([5]; 3 mg/kg): 93.7%
Tumor volume Day 8 ([5]; 3 mg/kg i.p.): 147 ± 38 mm^3
Tumor volume Day 22 ([5]; 3 mg/kg): 418 ± 268 mm^3
Tumor volume Day 33 ([5]; 3 mg/kg): 1028±963 mm^3
Survival situation ([5]; 3 mg/kg): 5/5
Tumor free situation ([5]; 3 mg/kg): 0/5
TGITV % ([5]; 10 mg/kg): 97.2%
Tumor volume Day 8 ([5]; 10 mg/kg i.p.): 153 ± 62 mm^3
Tumor volume Day 22 ([5]; 10 mg/kg): 68 ± 75 mm^3
Tumor volume Day 33 ([5]; 10 mg/kg): 219±326 mm^3
Survival situation ([5]; 10 mg/kg): 5/5
Tumor free situation ([5]; 10 mg/kg): 3/5
average tumor volume compared with control group ([5]; 1-10 mg/kg, in words): tumor volume obviously smaller than that of the control group; also recorded: obviously smaller than that of the G1 control group
Tumor volume Day 8 [1]: 98 ± 26 mm^3
Tumor volume Day 18 [1]: 688 ± 409 mm^3
Tumor volume Day 25 [1]: 1234±977 mm^3
TGITV % ([1]; doses as Table 9): 29.8%
Tumor free situation ([1]; doses as Table 9): 0/7
weight change compared among groups [1]: no significant difference in average weight increase
TGITV % ([6]; 3 mg/kg): 79.7%
Tumor volume Day 6 ([6]; 3 mg/kg intraperitoneal, once per week, 2 weeks, Day 6, group division): 88 ± 8 mm3
Tumor volume Day 17 ([6]; 3 mg/kg, Day 17): 208 ± 72 mm3
Tumor volume Day 20 ([6]; 3 mg/kg, Day 20, end-point): 237±89 mm3
Survival situation ([6]; 3 mg/kg, end-point): 7/7
Tumor free situation ([6]; 3 mg/kg, end-point): no mouse cured in the treatment group and 0/7
average tumor volume compared with control group ([6]; 3 mg/kg, in words): tumor volume obviously smaller than that of the control group
toxicity on the animals ([6]; 3 mg/kg, in words): does not have obvious toxicity on the animals
